Assay results taken from patent US20080146524A1, “Selective inhibitors of neurotensin degrading enzymes” (Solvay Pharmaceuticals B.V., priority 2006, published 2008).
Residues, ends and D or L forms follow the SMILES beside them.

Experiments:
[1] = determination of chemical stability, storage in glass vials, LC-MS; format: physicochemical; details: for relative stability: stored in glass vials, LC-MS; for stability on storage (in words): over 10 days (240 hr)
Description: Compound 36 and its phosphinamide analog phosphodiepril (FR 2 654 430, synthesized as disclosed therein) were stored separately in glass vials. At different time intervals samples were taken and analyzed by LC-MS. Samples were dissolved in DMSO (0.1 mg/ml) and diluted by a factor 100 in the first LC eluent (A). At fixed time points an amount of 100 μl was taken from the formulations. These time points were 0, 3, 72, and 240 hours. All samples were measured in the positive mode, with an ESI source on the LC-MS.
Eluents were composed of water (H2O), acetonitril (ACN), methanol (MeOH) and ammonium-acetate (NH4Ac). The eluent is mixed out of two different bottles with two different compositions. • Eluent A consists of H2O/ACN/MeOH 800/100/100+0.77 g/l NH4Ac. • Eluent B consists of H2O/ACN/MeOH 100/800/100+0.77 g/l NH4Ac.
The gradient in the pump was set to:
Columns: Chromsep Guard Column SS 10×2 mm (CP28141) and Inertsil 5 ODS-3 100×3.0 mm (CP22234). Column temperature: 25° C.
Injection: well plate temperature: 25° C. • Injection volume: 20 μl • Splitter (post column): 1:4 • Run time: 9.50 minutes.
Detection MS-MS:ESI (pos/neg) spray 3.0 kV • Fragmentor 70 • Gain 2.0 • Dwell 700 msec • Nebulizer pressure 42 psig • Drying gas temperature 325° C. • Capillary temperature 325° C.
Compound 36 and its phosphinamide analog phosphodiepril (FR 2 654 430, synthesized as disclosed therein) were stored separately in glass vials. At different time intervals samples were taken and analyzed by LC-MS.
When calculating the relative stability it was assumed that the compounds were completely dissolved during formulation. Therefore, the relative stability is 100% at the beginning (0 hour measurement). The following time measurements are recalculated from that measurement.

[2] = target: Thimet oligopeptidase EC 3.4.24.15 (UniProt P24155); assay: enzyme inhibition of Thimet oligopeptidase EC 3.4.24.15 (published methods, Dauch 1991a,b); format: biochemical
Neurolysine EC 3.4.24.16 = Neurolysine EC 3.4.24.16 (UniProt P42676); format: biochemical
[3] = in vivo experiments with phosphodiepril
From the text: Thus, even in its pure form, the N-analog is not stable. Due to the rapid hydrolysis of the phosphonamide bond, enzyme inhibition activity of this compound can only be determined with difficulty.

endopeptidase 24.16 = endopeptidase 24.16 (Rattus norvegicus, UniProt P42676); details: cited from earlier work
endopeptidase 24.16, sequence (P42676 38-704): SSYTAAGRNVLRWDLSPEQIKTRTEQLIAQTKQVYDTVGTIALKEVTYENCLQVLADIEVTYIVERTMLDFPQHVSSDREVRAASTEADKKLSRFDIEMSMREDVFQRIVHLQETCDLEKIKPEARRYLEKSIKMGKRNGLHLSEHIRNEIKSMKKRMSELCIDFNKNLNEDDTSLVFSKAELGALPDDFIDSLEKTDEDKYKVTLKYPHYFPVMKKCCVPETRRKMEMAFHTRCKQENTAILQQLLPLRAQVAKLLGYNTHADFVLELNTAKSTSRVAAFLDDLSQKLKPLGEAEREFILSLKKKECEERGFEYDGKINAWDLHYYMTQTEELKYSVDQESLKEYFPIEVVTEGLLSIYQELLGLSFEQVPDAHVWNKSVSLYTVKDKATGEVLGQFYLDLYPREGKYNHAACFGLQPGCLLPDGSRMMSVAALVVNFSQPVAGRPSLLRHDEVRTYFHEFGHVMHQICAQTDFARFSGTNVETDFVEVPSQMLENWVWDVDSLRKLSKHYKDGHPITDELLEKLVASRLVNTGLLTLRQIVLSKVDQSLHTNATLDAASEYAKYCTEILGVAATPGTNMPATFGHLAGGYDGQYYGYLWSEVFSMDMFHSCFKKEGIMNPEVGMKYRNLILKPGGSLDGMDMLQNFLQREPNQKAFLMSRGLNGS

endopeptidase 24.15 = endopeptidase 24.15 (Rattus norvegicus, UniProt P24155); details: at concentrations as high as 5 mM; cited from earlier work
endopeptidase 24.15, sequence (P24155 whole entry): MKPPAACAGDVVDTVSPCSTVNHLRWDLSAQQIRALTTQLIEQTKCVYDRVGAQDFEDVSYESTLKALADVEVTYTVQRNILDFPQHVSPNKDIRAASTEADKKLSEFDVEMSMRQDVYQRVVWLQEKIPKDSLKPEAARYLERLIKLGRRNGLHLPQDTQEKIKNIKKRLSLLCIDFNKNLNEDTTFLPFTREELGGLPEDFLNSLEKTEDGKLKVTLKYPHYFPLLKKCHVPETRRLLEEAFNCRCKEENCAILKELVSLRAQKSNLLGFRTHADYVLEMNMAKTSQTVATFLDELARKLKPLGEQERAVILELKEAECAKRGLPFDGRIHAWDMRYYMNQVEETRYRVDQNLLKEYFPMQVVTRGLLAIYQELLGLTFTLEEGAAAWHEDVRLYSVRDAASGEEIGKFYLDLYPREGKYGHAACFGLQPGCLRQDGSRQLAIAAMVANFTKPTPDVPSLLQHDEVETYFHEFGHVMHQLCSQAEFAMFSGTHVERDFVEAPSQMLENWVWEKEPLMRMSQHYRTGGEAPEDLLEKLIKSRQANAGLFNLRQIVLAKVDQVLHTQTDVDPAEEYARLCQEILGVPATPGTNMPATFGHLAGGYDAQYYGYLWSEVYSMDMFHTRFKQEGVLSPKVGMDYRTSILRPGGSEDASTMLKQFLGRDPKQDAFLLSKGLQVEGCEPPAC

[4] = test system: Corynebacterium rathayii collagenase; details: cited from earlier work
[5] = Time 0 hr (set to 100% at the beginning)
[6] = Time 240 hr, relative to 0 hour

SMILES	enzyme inhibition EC 3.4.24.15 pIC50 [2]	enzyme inhibition EC 3.4.24.16 pIC50 (Neurolysine EC 3.4.24.16)	further results
CCCC[C@H](NC(=O)[C@@H]1CCCN1C(=O)CCP(=O)(O)CCc1ccc2ccccc2c1)C(=O)O [Compound 36]	8.9	>7.5	relative stability [1, 5]: 100%; relative stability ([1]; Time 3 hr, relative to 0 hour): 101%; relative stability ([1]; Time 72 hr, relative to 0 hour): 103%; relative stability [1, 6]: 100%; stability on storage (in words) [1]: remained stable
CCCC[C@H](NC(=O)[C@@H]1CCCN1C(=O)CNP(=O)(O)CCc1ccc2ccccc2c1)C(=O)O [phosphodiepril, reference compound]			relative stability [1, 5]: 100%; relative stability ([1]; Time 3 hr, relative to 0 hour): 92%; relative stability ([1]; Time 72 hr, relative to 0 hour): 87%; relative stability [1, 6]: 82%; stability on storage (in words) [1]: gradually degraded; outcome of in vivo experiments [3]: negative results
CCCCC(NC(=O)C(C)N(C)C(=O)CCP(=O)(O)CCc1ccc2ccccc2c1)C(=O)O (stereo not drawn) [Compound 32]	7.0		
CC[C@H](C)[C@H](NC(=O)[C@@H]1CCCN1)C(=O)O [Pro-IIe] (H-Pro-Ile-OH)			Ki (endopeptidase 24.16): 90 µM; inhibition of endopeptidase 24.15 (endopeptidase 24.15): does not inhibit
CCCC[C@H](NC(=O)[C@@H]1CCCN1C(=O)CCP(=O)(O)CCc1ccccc1)C(=O)O [N-[1-[3-[hydroxyl-(2-phenyl-ethyl)phosphinyl]1-oxopropyl]-L-prolyl]-L-norleucine]			inhibition of Corynebacterium rathayii collagenase [4]: potent inhibitor
CCCCC(NC(=O)C(NC(=O)CCP(=O)(O)CCc1cccc2ccccc12)C(C)C)C(=O)O (stereo not drawn) [Compound 26]	6.5	6.3	
CCC(C)C(NC(=O)CCP(=O)(O)CCc1cccc2ccccc12)C(=O)NC(CC(C)C)C(=O)O (stereo not drawn) [Compound 30]	5.8	5.2	
CCCCC(NC(=O)C(NC(=O)CCP(=O)(O)CCCCc1ccccc1)C(C)C)C(=O)O (stereo not drawn) [Compound 6]	6.8	6.7	
CCC(C)C(NC(=O)CCP(=O)(O)CCCCc1ccccc1)C(=O)NC(CC(C)C)C(=O)O (stereo not drawn) [Compound 9]	6.3	5.6	
CCC(C)C(NC(=O)CCP(=O)(O)CCCCc1ccccc1)C(=O)NC(C(=O)O)C(C)C (stereo not drawn) [Compound 8]	5.8	5.4	
CC(C)C(NC(=O)CCP(=O)(O)CCCCc1ccccc1)C(=O)NC(Cc1ccccc1)C(=O)O (stereo not drawn) [Compound 7]	6.2	6.1	
CCC(NC(=O)C(Cc1ccccc1)NC(=O)CCP(=O)(O)Cc1ccc2ccccc2c1)C(=O)O (stereo not drawn) [Compound 25]	5.7	5.9	
CCC(C)C(NC(=O)CCP(=O)(O)CCc1cccc2ccccc12)C(=O)NC(C(=O)O)C(C)C (stereo not drawn) [Compound 28]	6.3	5.8	
CC(C)C(NC(=O)CCP(=O)(O)CCc1cccc2ccccc12)C(=O)NC(Cc1ccccc1)C(=O)O (stereo not drawn) [Compound 27]	6.2	6.1	
CCC(C)C(NC(=O)CCP(=O)(O)CCc1ccc2ccccc2c1)C(=O)NC(CC(C)C)C(=O)O (stereo not drawn) [Compound 29]	7.0	6.6	
CCCCC(NC(=O)C(C)N(C)C(=O)CCP(=O)(O)CCCCc1ccccc1)C(=O)O (stereo not drawn) [Compound 11]	6.2	6.1	
